For orientation: Cmax means the peak of the concentration-time curve. As usually defined, the Tmax is the time from dosing to the highest level. In general, IC50 refers to the concentration that gives 50% inhibition. Higher therefore signals weaker potency in that assay. By AUC is commonly meant concentration integrated over time. In general, AUC(0-t) refers to exposure summed from dosing to a finite time, without extrapolation to infinity. Low readings indicate less exposure, high ones more exposure. One may read the half-life as the time needed for the level to fall by half in the phase considered.

Consider six compounds from US10105349B2, “Organic compounds” (INTRA-CELLULAR THERAPIES, INC., priority 2014, dated 2018).

SMILES strings stand for the structures. Where two headings read alike, the source gives them in different places.

The conditions of series [1]: published standard, 10 mg/kg PO; cited from earlier work.
The target in series [2] is r-hPDE2A (Homo sapiens (Human), UniProt O00408). The series is described as follows: Measurement of PDE2 inhibition in vitro (IMAP fluorescence polarization). The following applies: FL-cAMP substrate, buffer supplemented with 1 μM cGMP. Type of series: biochemical. Here is the method:
Measurement of PDE2 Inhibition In Vitro
r-hPDE2A (Accession No. NM_002599, Homo sapiens phosphodiesterase 2A, cGMP-stimulated, transcript variant 1) A mammalian expression cloning vector with recombinant cDNA copy of the gene is purchased from Origene. Protein is expressed via transient transfection of HEK293 cells. The cells are harvested at 48 hours after transfection, washed once with TBS buffer (50 mM Tris-HCl, pH 7.5, 150 mM NaCl), then lysed by sonication in cold homogenization buffer (50 mM Tris-HCl, pH 7.5, 5 mM MgCl2, 1× protease inhibitor cocktail). The homogenate is centrifuged for 30 min at 15,000 g at 4° C. to obtain the soluble cytosolic fraction. The protein concentration of the cytosol is determined using BCA Protein Assay Kit (Pierce) with bovine serum albumin as a standard.
Assay: PDE2A is assayed with FL-cAMP as substrate. An enzyme titration is first performed to determine the working concentration of PDE. The concentration of the enzyme giving activity of 100 ΔmP in the absence of inhibitor is deemed an appropriate working concentration for PDE.
PDE enzyme is diluted in a standard reaction buffer (10 mM Tris-HCl pH 7.2, 10 mM MgCl2, 0.1% BSA, 0.05% NaN3) according to the titration curve. For PDE2 assay the reaction buffer is supplemented with 1 μM cGMP to fully activate the enzyme. 99 μl of diluted enzyme solution is added into each well in a flat bottom 96-well polystyrene plate and then ˜1 μl of test compound dissolved in 100% DMSO is added. The compounds are mixed and pre-incubated with the enzyme for 10 min at room temperature.
The FL-cNMP conversion reaction is initiated by addition of substrate (45 nM final). Enzyme and inhibitor mix (16 μl) and substrate solution (4 μl of 0.225 μM) are combined in a 384-well microtiter plate. The reaction is incubated in the dark at room temperature for 15 min. The reaction is halted by addition of 60 μl of binding reagent (1:400 dilution of IMAP beads in binding buffer supplemented with 1:1800 dilution of antifoam) to each well of the 384-well plate. The plate is incubated at room temperature for 1 hour to allow IMAP binding to proceed to completion, and then placed in an Envision multimode microplate reader (PerkinElmer, Shelton, Conn.) to measure the fluorescence polarization (Δmp).
A decrease in cAMP concentration, measured as decreased Amp, is indicative of inhibition of PDE activity. […] Test well values are normalized to control reactions run on the same plate (values converted to % of control). IC50 values are estimated using nonlinear regression software, fitting a four-parameter one-site dose-response model (XLFit; IDBS, Cambridge, Mass.). Bottom of curve is fixed at 0% of control.
The total fluorescence intensity of each sample well is measured to calculate the average and standard deviation. If the total fluorescence intensity of any sample well is not within the range of Average±3SD, the mp value of that particular well is discarded.
For orientation: Polarisation of emitted light reports the rotation of a fluorescent probe.

Series [3] can be described thus: Pharmacokinetic study in mice (plasma and brain availability). Type of series: in vivo. The settings on record: 10 mg/kg PO; for blood plasma ratio: brain/plasma, po, 10 mg/kg. Here is the method: Pharmacokinetic Study in Mice
Mice are given a single oral dose of the compound of Example 22 (10 mg/kg, PO) and plasma and brain availability are measured (0.25-4 h) using HPLC and LC-MS using methods analogous to those described in Zhao et al., J. Chromatogr. B. Analyt. Technol. Biomed. Life Sci. (2005) 819(1):73-80 and Appels, N. M., et al., Rapid Commun. Mass Spec. 2005. 19(15): p. 2187-92.

In series [4] the test system is cGMP levels in the striatum. The series is described as follows: Measurements of cGMP in mouse brain in vivo. Here is the method:
Measurements of cGMP in Mouse Brain in vivo:
Striatum are dissected from the mouse brains and assayed for levels of cGMP. Trichloroacetic acid (TCA) is added to tissue samples for a final concentration of 5% TCA and the tissue is immediately sonicated in solution and stored on ice. The sonicated sample is centrifuged at 15,000×g for 20 min at 4° C. to remove the precipitated protein. To extract the TCA, the sample is washed three times in water saturated ether. The samples are then dried under vacuum (Speedvac, Savant SPD111V) at room temperature and re-suspended in 100 μL EIA buffer. […] Each sample is tested in duplicate in precoated assay plates alongside the 8-point cGMP standard dilutions. In addition, blank, maximum binding (B0) and non-specific binding wells are included. To all wells containing 50 μL sample or standard, equal volumes of AChE-linked cGMP and cGMP antibody are added. The plate is incubated at 4° C. for 18 hours. The wells are then washed 5 times with wash buffer. […] Each data point is converted to % B/B0 (100*[(sample or standard OD−average non-specific binding)/(average B0−average non-specific binding)]). The standards are plotted and fit to a 4-parameter logistic equation (FIG. 1). The concentrations of the samples are interpolated from the standard curve using Microsoft Excel and GraphPad Prizm.

Sequence of r-hPDE2A (O00408 whole entry): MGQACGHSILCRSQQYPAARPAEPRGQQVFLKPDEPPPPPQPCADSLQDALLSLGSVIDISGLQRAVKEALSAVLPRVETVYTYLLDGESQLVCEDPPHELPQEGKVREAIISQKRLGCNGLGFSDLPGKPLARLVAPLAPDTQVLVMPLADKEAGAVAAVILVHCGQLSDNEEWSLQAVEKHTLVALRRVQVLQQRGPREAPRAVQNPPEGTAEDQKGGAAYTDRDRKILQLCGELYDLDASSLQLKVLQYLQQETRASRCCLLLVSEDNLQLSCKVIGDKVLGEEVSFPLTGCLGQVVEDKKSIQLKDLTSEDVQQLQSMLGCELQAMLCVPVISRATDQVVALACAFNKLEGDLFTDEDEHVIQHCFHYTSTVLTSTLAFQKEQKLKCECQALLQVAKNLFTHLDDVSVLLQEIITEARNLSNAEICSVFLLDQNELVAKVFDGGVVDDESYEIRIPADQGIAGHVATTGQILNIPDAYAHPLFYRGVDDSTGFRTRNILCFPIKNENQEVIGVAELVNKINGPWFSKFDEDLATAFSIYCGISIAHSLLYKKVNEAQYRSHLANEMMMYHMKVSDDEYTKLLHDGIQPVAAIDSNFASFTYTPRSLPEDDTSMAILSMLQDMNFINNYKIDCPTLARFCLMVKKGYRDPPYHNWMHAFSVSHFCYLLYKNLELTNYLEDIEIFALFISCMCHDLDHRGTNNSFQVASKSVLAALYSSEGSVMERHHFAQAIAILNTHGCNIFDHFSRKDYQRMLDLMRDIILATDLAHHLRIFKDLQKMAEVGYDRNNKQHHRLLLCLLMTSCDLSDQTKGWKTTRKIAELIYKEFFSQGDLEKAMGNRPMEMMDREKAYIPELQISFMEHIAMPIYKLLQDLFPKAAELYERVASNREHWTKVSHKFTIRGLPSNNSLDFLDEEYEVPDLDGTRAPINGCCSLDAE

For `COc1ccc(Cc2nn3c([C@@H](CCCc4ccccc4)[C@@H](C)O)nc(C)c3c(=O)[nH]2)cc1OC` [Bay 60-7550], in series [1], the Cmax is 3 ng/mL and the Tmax is on record as 0.25 h.
In series [2], `CCCCOc1ccc(Cl)c(-n2nc(C)c3c(=O)[nH]c4cccnc4c32)c1` [Example 17, 1-(5-Butoxy-2-chlorophenyl)-3-methyl-1H-pyrazolo[4,3-c][1,5]naphthyridin-4(5H)-one] gave an IC50 of 28 nM.
For `Cc1nn(-c2cc(Cl)ccc2Cl)c2c1c(=O)[nH]c1ccc(Cl)nc12` [Example 19, 8-Chloro-1-(2,5-dichlorophenyl)-3-methyl-1H-pyrazolo[4,3-c][1,5]naphthyridin-4(5H)-one], the IC50 in series [2] was 73 nM.
On the same count and under the same terms, to `CCCCOc1ccc(Cl)c(-n2nc(C)c3c(=O)[nH]c4ccc(Cl)nc4c32)c1` [Example 20, 1-(5-Butoxy-2-chlorophenyl)-8-chloro-3-methyl-1H-pyrazolo[4,3-c][1,5]naphthyridin-4(5H)-one] belongs 12 nM; to `CCCCOc1ccc(Cl)c(-n2nc(C)c3c(=O)[nH]c4ccc(OC)nc4c32)c1` [Example 21, 1-(5-Butoxy-2-chlorophenyl)-8-methoxy-3-methyl-1H-pyrazolo[4,3-c][1,5]naphthyridin-4(5H)-one], 9.4 nM.
`COc1ccc2[nH]c(=O)c3c(C)nn(-c4cc(OCC5CCC5)ccc4Cl)c3c2n1` [Example 22, 1-(2-Chloro-5-(cyclobutylmethoxy)phenyl)-8-methoxy-3-methyl-1H-pyrazolo[4,3-c][1,5]naphthyridin-4(5H)-one]: the brain access result in series [3] (0.25-4 h, compared to Bay 60-7550) was “good brain access”. For the same compound, in series [3] (mouse, brain), the AUC came out at 83 ng·h/mL, the AUC(0-t) worked out at 50 ng·h/mL, the Cmax is 17 ng/mL and the Tmax is 2 h. In series [3] (mouse, brain, read-out: E Half-life (converted)), the half-life is 2.4 h. Further, the blood plasma ratio in series [3] (mouse, read-out: Blood/plasma Ratio of AUC (area)) worked out at 0.9. In series [3] (mouse, read-out: Blood/plasma Ratio of Cmax (obs)), the blood plasma ratio came out at 1.4. Moreover, the blood plasma ratio in series [3] (mouse, Blood/plasma Ratio of AUC (0-4 hr) (obs area)) was found to be 1.4. Moreover, the IC50 in series [2] is 5.9 nM. For the same compound, in series [4] (3 mg/kg i.p., 15, 30 or 60 min, compared to Bay 60-7550 (3 mg/kg)), the “cGMP levels in the striatum of mice” value was “increases cGMP levels”. Further, in series [4] (inferred from striatal cGMP after 3 mg/kg i.p.), the “brain access compared to Bay60-7550” value is “improvement in brain access”.
